Test results: PMC5698590 (British Journal of Clinical Pharmacology, 2017)
“Also recorded” adds a separate entry of the source. Read-outs that look alike come from different tables or passages of the source. Marks after values point to notes of the source that are not given here. Values belong to the compound of their own block, whether it stands above or below them.

How the values were obtained:
[1] = Drug-drug interaction with primaquine coadministration (stepwise and full covariate approach, bootstrap n = 1000); type: in vivo, human; conditions: for Effect of primaquine coadministration on pharmacokinetic properties: stepwise covariate approach
Description: All continuous and categorical covariates (aspartate aminotransferase, alanine aminotransferase, alkaline phosphatase, haemoglobin, blood urea nitrogen, serum creatinine level, albumin level, primaquine coadministration and age) were investigated by using a stepwise forward inclusion (P‐value <0.05), followed by stepwise backward elimination (P‐value >0.001). A strict P‐value of 0.001 for the backward elimination was used as there were relatively few subjects in the present study 34. Gender was not evaluated as a covariate owing to the substantial imbalance between male and female subjects (five males out of 16 subjects). The effect of primaquine coadministration was also modelled separately, using a full covariate approach in which the primaquine coadministration was implemented as a categorical covariate on all pharmacokinetic parameters (except relative bioavailability owing to identifiability issues) in the final pharmacokinetic model. The full covariate models were bootstrapped (n = 1000) to determine a potentially influential drug–drug interaction on primary and secondary pharmacokinetic parameters. A primaquine‐dependent change of more than ±25% in parameter estimates was deemed a clinically relevant drug–drug interaction.

[2] = Population pharmacokinetic modelling of DHA and piperaquine plasma concentrations in healthy Thai volunteers; type: in vivo, human; conditions: for half-life / AUC / Cmax / Tmax: both sexes, plasma, oral; for AUC: read-out: AUC (time zero to infinity), median (range); for Cmax: read-out: CMAX, median (range); for Tmax: read-out: TMAX, median (range); for MTT (mean transit time), population estimate (%RSE): oral DHA-piperaquine three tablets
Method: It was a descriptive pharmacokinetic-pharmacodynamic study and no formal sample size calculations were performed. […] All volunteers received primaquine alone in the first phase, followed by a washout period of 1 week. In the second and third phases, volunteers received DHA-piperaquine alone and DHA-piperaquine coadministered with primaquine at random, with an intervening washout period of 8 weeks. Study drug regimens comprised two tablets of primaquine (each tablet containing 15 mg primaquine base) and three tablets of co-formulated DHA-piperaquine (each tablet containing 40 mg DHA and 320 mg piperaquine phosphate). Study drugs were administered in the morning, 30 min after a light meal (~200 kcal and 8 g fat) with a glass of water. Venous blood samples (2 ml) were collected into fluoride-oxalate blood collection tubes. Blood samples were taken at 0 (predose), 0.25, 0.5, 1, 1.5, 2, 3, 4, 6, 8, 10, 12, and 24 h postdose. Additional blood samples were taken at days 3, 4, 7, 11, 15, 22, and 36 for piperaquine drug measurements. The exact drug administration and sampling times were recorded. Blood and plasma were separated by centrifugation at 2000 × g at 4°C for 7 min. All plasma samples were stored below -70°C and transferred on dry ice to the Department of Clinical Pharmacology, Mahidol-Oxford Tropical Medicine Research Unit (MORU), Bangkok, Thailand, for drug quantification. Plasma concentrations of DHA and piperaquine were measured using solid-phase extraction followed by liquid chromatography coupled with tandem mass spectrometry 25, 26. Quality control samples at low, middle and high concentration (5.87, 117 and 1880 ng ml^-1 for DHA and 4.50, 20.0 and 400 ng ml^-1 for piperaquine) were analysed in triplicate within each batch of study samples, to ensure the accuracy and precision of the drug assay. […] The lower limit of quantification (LLOQ) was set to be 2.00 ng ml^-1 for DHA and 1.50 ng ml^-1 for piperaquine. The laboratory is a participant in the QA/QC proficiency testing programme supported by the Worldwide Antimalarial Resistance Network 27. DHA and piperaquine plasma concentrations were transformed into their natural logarithms and analysed using a nonlinear mixed-effects modelling approach in NONMEM version 7.3 (Icon Development Solution, Ellicott City, MD, USA). […] version 2.9.0 28, Perl-speaks-NONMEM version 3.5.3 (PsN) 29 and Xpose version 4.0 30 were used for automation, model evaluation and diagnostics during the model-building process. The first-order conditional estimation method with interactions (continuous data only) or the Laplacian estimation method (a combination of continuous and categorical data) was used throughout modelling and simulation. […] Therefore, two LLOQ methods were evaluated during the model-building process 31. Data below the LLOQ were omitted (M1 method) or modelled as categorical data (M3 method). Model fitness was evaluated primarily by the objective function value (OFV; calculated by NONMEM as proportional to -2 × log-likelihood of the data). […] One-, two-, three- and four-compartment structural disposition models were evaluated for DHA and piperaquine. The best performing model was used to evaluate the absorption characteristics of DHA and piperaquine (i.e. first-order absorption with and without lag time, zero-order absorption and transit absorption). The transit compartment absorption model is a more mechanistic description of delayed absorption compared with the dichotomous properties of a lag-time model 32.

[3] = cited from earlier work
[4] = test system: QT interval; experiment: Population pharmacokinetic-pharmacodynamic model of piperaquine concentration vs double-delta-corrected QTc prolongation (12-lead ECG); type: in vivo, human
Method: Subjects were rested for at least 20 min before ECG measurements were taken (ECG‐1250 K, Nihon Kohden, Japan). 12‐lead ECG measurements were performed twice before drug administration, and at 1, 2, 4, 8, 12, and 24 h after each study drug administration. The ECGs were recorded at 10 mm mV^–1 sensitivity, and 25 mm s^–1 paper speed. Automatic readouts of all ECG measurements were collected but all ECGs with a reported QT interval greater than 450 ms were manually adjudicated by a research physician (unblinded) and a cardiologist (blinded). Other abnormal ECG waveforms were read by a cardiologist. Observed QT intervals were later corrected for heart rate by both the Fridericia and Bazett formulae 24. Data‐driven individual and study population correction factors were also evaluated (see section on methodology, below).
The observed QT interval must be corrected for heart rate in order to compare QT intervals between and within patients. Observed QT measurements were corrected by the traditionally used Bazett and Fridericia formulae (i.e. fixing the exponent (α) to 1/2 and 1/3, respectively, in Equation (5)). Furthermore, all observed individual QT and RR intervals from the placebo arm (i.e. primaquine‐alone arm) in a subject were used to determine the optimal individual QT correction factor (α) for each subject using ordinary least‐squares fit (Equation (5)). The calculated individual correction factor for a particular subject was then applied to all measured QT intervals for that subject, in order to generate corrected QT intervals (QTc) 24.
The appropriateness of the applied correction methods was evaluated by individual linear regression analysis of QTc vs. RR. The relationship between piperaquine drug concentrations and QRS, JT (i.e. QT – QRS) and QT intervals was evaluated with ordinary linear regression to assess the most appropriate modelling approach.
Double‐delta corrections are commonly performed to adjust for the observed circadian rhythm of ECG measurements 37. Thus, double‐delta‐corrected QTc prolongations (ΔΔQTc) were calculated by subtracting the placebo arm ΔQTc from the treatment arm ΔQTc, as in Equation (7). The primaquine‐alone arm was used as the placebo arm.
Calculated ΔΔQTc‐prolongations were used as the pharmacodynamic endpoint. Individually predicted piperaquine concentrations (CP) were obtained from imputing individual pharmacokinetic parameter estimates directly into the pharmacodynamic model. The relationship between drug exposure and QT prolongation was evaluated initially by a linear direct‐response pharmacodynamic model, as in Equation (8).
(8) ΔΔQTc=θ1+η1+θ2×CPt+εi where θ1 represents the typical baseline ΔΔQTc prolongation, η1 is the normally distributed between‐subject variability, θ2 is the slope of the exposure–response relationship and εi is the normally distributed residual error. Different exposure–response relationships (i.e. power model and EMAX model) were also investigated during the model development process. Hysteresis was investigated to account for a possible delayed exposure–response relationship (i.e. turn‐over and link models).
Age, gender, electrolyte levels (i.e. potassium and sodium) at admission and concomitant primaquine administration were evaluated as linear covariates on the piperaquine‐related ΔΔQTc prolongation, using a stepwise addition–deletion approach (as described above). Model evaluation and diagnostics were performed in the same manner as for the pharmacokinetic modelling approach.

[5] = human, with primaquine, Bayesian post hoc estimates
[6] = human, with primaquine, Bayesian post hoc estimates, read-out: t1/2 (terminal half-life), median (range) (converted)
[7] = human, without primaquine, Bayesian post hoc estimates
[8] = human, without primaquine, Bayesian post hoc estimates, read-out: t1/2 (terminal half-life), median (range) (converted)
[9] = healthy volunteers, typical individual 64 kg
[10] = healthy volunteers, typical individual 64 kg, two-compartment model
[11] = full covariate approach, 95% CI included zero effect
[12] = F fixed to 100% for the population
[13] = healthy volunteers, typical individual 64 kg, three-compartment model

- half-life ([2]; human, three-compartment model, not carried forward, read-out: Median terminal half-life from the three-compartment model (converted)): 3.11 h
- AUC [2, 5]: 798 ng·h/mL
- Cmax [2, 5]: 357 ng/mL
- Tmax [2, 5]: 1.27 h
- half-life [2, 6]: 2.2 h
- AUC [2, 7]: 767 ng·h/mL
- Cmax [2, 7]: 361 ng/mL
- Tmax [2, 7]: 1.3 h
- half-life [2, 8]: 2.2 h
- MTT (mean transit time), population estimate (%RSE) [2, 9]: 0.567 (11.4%) h
- CL/F (oral clearance), population estimate (%RSE) [2, 9]: 148 (10.6%) l h^-1
- VC/F (apparent central volume of distribution), population estimate (%RSE) [2, 9]: 214 (16.9%) l
- ka (absorption rate constant from last transit compartment to central compartment), population estimate (%RSE) [2, 9]: 2.89 (37.1%) h^-1
- QP/F (inter-compartment clearance), population estimate (%RSE) [2, 10]: 28.5 (26.0%) l h^-1
- VP/F (apparent peripheral volume of distribution), population estimate (%RSE) [2, 10]: 65.9 (19.1%) l
- Between-occasion variability of ka, %CV (%RSE) ([2]; human, in vivo): 89.0% (23.7%) ^*
- Between-occasion variability of ka, %CV (%RSE) ([2]; human, in vivo, listed as DHA): 89.0%
SMILES: C[C@H]1[C@@H](O)O[C@@H]2O[C@@]3(C)CC[C@H]4[C@H](C)CC[C@@H]1[C@@]24OO3 [dihydroartemisinin]
- Effect of primaquine coadministration on pharmacokinetic properties ([1]; listed as DHA): did not affect the pharmacokinetic properties; also recorded: did not have a significant impact
- Elimination half-life [3]: 1 to 2 h
- Terminal half-life in previous reports [3]: 8.7 to 150 min

- Median decrease in central volume of distribution during concomitant primaquine [1, 11]: 37.3% (95% CI −67.6%, 33.7%)
- Median increase in mean transit absorption time during concomitant primaquine [1, 11]: 26.8% (95% CI −21.2%, 62.5%)
- Between-occasion variability of F (relative bioavailability), %CV (%RSE) [2, 12]: 19.1% (13.3%) ^*
- Between-subject variability of F (relative bioavailability), %CV (%RSE) [2, 12]: 17.9% (34.0%)
- Cmax [2, 5]: 300 ng/mL
- Tmax [2, 5]: 3.98 h
- half-life [2, 6]: 530 h
- Cmax [2, 7]: 332 ng/mL
- Tmax [2, 7]: 3.76 h
- half-life [2, 8]: 530 h
- MTT (mean transit time), population estimate (%RSE) [2, 9]: 3.13 (9.42%) h
- CL/F (oral clearance), population estimate (%RSE) [2, 9]: 27.4 (5.50%) l h^-1
- VC/F (apparent central volume of distribution), population estimate (%RSE) [2, 9]: 751 (23.5%) l
- QP1/F (inter-compartment clearance), population estimate (%RSE) [2, 13]: 206 (9.56%) l h^-1
- QP2/F (inter-compartment clearance), population estimate (%RSE) [2, 13]: 71.5 (9.01%) l h^-1
- VP1/F (apparent peripheral volume of distribution), population estimate (%RSE) [2, 13]: 1900 (8.23%) l
- Between-occasion variability of MTT, %CV (%RSE) ([2]; human, in vivo): 32.2% (13.4%) ^*
- Between-subject variability of CL/F, %CV (%RSE) ([2]; human, in vivo): 10.9% (37.2%)
- Between-subject variability of QP2/F, %CV (%RSE) ([2]; human, in vivo): 24.1% (36.3%)
- Between-subject variability of VC/F, %CV (%RSE) ([2]; human, in vivo): 42.4% (40.9%)
- Variability in the absorption characteristics ([2]; human, in vivo): below 35%
- Day 7 conc., median (range) ([2]; with primaquine, Bayesian post hoc estimates): 16.7 (13.8–28.9) ng ml^-1
- Day 7 conc., median (range) ([2]; without primaquine, Bayesian post hoc estimates): 18.3 (10.5–34.9) ng ml^-1
SMILES: Clc1ccc2c(N3CCN(CCCN4CCN(c5ccnc6cc(Cl)ccc56)CC4)CC3)ccnc2c1 [piperaquine]
- Effect of primaquine coadministration on pharmacokinetic properties [1]: did not affect the pharmacokinetic properties; also recorded: did not have a significant impact
- SLOPE (slope of the relationship between piperaquine concentration and ΔΔQTc prolongation), population estimate (%RSE) ([4]; linear direct-response model, healthy volunteers): 0.0417 (12.5%) ms (ng ml^-1)^-1
- Relationship between piperaquine drug concentrations and ΔQRS ([4]; ordinary linear regression, P = 0.520): no significant relationship
- Population mean increase in ΔΔQTc (QT interval) per 100 ng ml^-1 increase in piperaquine plasma concentration ([4]; per 100 ng ml^-1, individually corrected QT, healthy volunteers): 4.17 ms
- Terminal elimination half-life ([3]; introduction): 480 to 720 h
- Increase in piperaquine trough concentrations at week 36 compared with week 4 ([3]; repeated bimonthly treatment doses): 267% (range 146–381%)
- Increase in piperaquine trough concentrations at week 36 compared with week 4 ([3]; repeated monthly treatment doses): 336% (range 271–402%)
- Median maximum piperaquine concentration ([3]; standard 3-day regimen of 50 mg kg^-1, pregnant and nonpregnant women with uncomplicated P. falciparum malaria): 244 ng/mL

SMILES: COc1cc(NC(C)CCCN)c2ncccc2c1 (centres unmarked) [primaquine]
- Relationship between ΔQTc and primaquine concentrations ([4]; primaquine-alone arm, 30 mg base, ordinary linear regression): no correlation; also recorded: no impact on ventricular repolarization
- Effect of primaquine on the piperaquine exposure-QTc prolongation relationship ([4]; stepwise covariate approach): did not affect the relationship
